Measurements as given in ChEMBL document CHEMBL1201862, “PubChem BioAssay data set” (2004).
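Assay format: 96-well plates, 48-hour exposure. GI50 = concentration required for 50% inhibition of growth.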 Activity calls are given as the source filed them. Cut-off read from the data, not from the text of the source: active = GI50 up to about 1.1 µM and inactive = higher.

Legend:
Assay in all cases: NCI tumour cell line growth inhibition, 48 h
786-0 = tested on: 786-0
A498 = tested on: A498
A549 = tested on: A549
ACHN = tested on: ACHN
CAKI-1 = tested on: CAKI-1
CCRF-CEM = tested on: CCRF-CEM
COLO 205 = tested on: COLO 205
DU-145 = tested on: DU-145
EKVX = tested on: EKVX
HCC 2998 = tested on: HCC 2998
HCT-116 = tested on: HCT-116
HCT-15 = tested on: HCT-15
HL-60 = tested on: HL-60
HOP-62 = tested on: HOP-62
HOP-92 = tested on: HOP-92
HT-29 = tested on: HT-29
Hs-578T = tested on: Hs-578T
IGROV-1 = tested on: IGROV-1
K562 = tested on: K562
KM12 = tested on: KM12
LOX IMVI = tested on: LOX IMVI
M14 = tested on: M14
MCF7 = tested on: MCF7
MDA-MB-231 = tested on: MDA-MB-231
MDA-MB-435 = tested on: MDA-MB-435
MDA-N = tested on: MDA-N
MOLT-4 = tested on: MOLT-4
Malme-3M = tested on: Malme-3M
NCI-H226 = tested on: NCI-H226
NCI-H23 = tested on: NCI-H23
NCI-H460 = tested on: NCI-H460
NCI-H522 = tested on: NCI-H522
NCI/ADR-RES = tested on: NCI/ADR-RES
OVCAR-3 = tested on: OVCAR-3
OVCAR-4 = tested on: OVCAR-4
OVCAR-5 = tested on: OVCAR-5
OVCAR-8 = tested on: OVCAR-8
PC-3 = tested on: PC-3
RPMI-8226 = tested on: RPMI-8226
RXF 393 = tested on: RXF 393
SF-268 = tested on: SF-268
SF-295 = tested on: SF-295
SF-539 = tested on: SF-539
SK-MEL-28 = tested on: SK-MEL-28
SK-MEL-2 = tested on: SK-MEL-2
SK-MEL-5 = tested on: SK-MEL-5
SK-OV-3 = tested on: SK-OV-3
SN12C = tested on: SN12C
SNB-19 = tested on: SNB-19
SNB-75 = tested on: SNB-75
SW-620 = tested on: SW-620
T47D = tested on: T47D
TK-10 = tested on: TK-10
U-251 = tested on: U-251
UACC-257 = tested on: UACC-257
UACC-62 = tested on: UACC-62
UO-31 = tested on: UO-31
SR = tested on: SR

`C=C(COCO)C(C)=O` was tested. Which GI50 (786-0) did it give?
Its GI50 is 12 µM (inactive).

What about the GI50 (A498) of the same compound?
The GI50 was 27.9 µM (inactive).

What about the GI50 (A549) of the same compound?
The GI50 was 26 µM (inactive).

What about the GI50 (ACHN) of the same compound?
The GI50 was 15.7 µM (inactive).

And the GI50 (CAKI-1)?
Its GI50 is 2.5 µM (inactive).

What about the GI50 (CCRF-CEM) of the same compound?
Its GI50 is 2.86 µM (inactive).

And the GI50 (COLO 205)?
The GI50 was 7.52 µM (inactive).

What about the GI50 (DU-145) of the same compound?
The GI50 was 26 µM (inactive).

What about the GI50 (EKVX) of the same compound?
Its GI50 is 20.4 µM (inactive).

What about the GI50 (HCC 2998) of the same compound?
Its GI50 is 27.9 µM (inactive).

What about the GI50 (HCT-116) of the same compound?
Its GI50 is 13.5 µM (inactive).

What about the GI50 (HCT-15) of the same compound?
The GI50 was 21.4 µM.

What about the GI50 (HL-60) of the same compound?
The GI50 was 3.48 µM (inactive).

And the GI50 (HOP-62)?
Its GI50 is > 47.1 µM (inactive).

What about the GI50 (HOP-92) of the same compound?
Its GI50 is 27 µM (inactive).

What about the GI50 (HT-29) of the same compound?
Its GI50 is 17.7 µM (inactive).

What about the GI50 (Hs-578T) of the same compound?
The GI50 was 23.9 µM (inactive).

And the GI50 (IGROV-1)?
Its GI50 is 20.1 µM (inactive).

And the GI50 (K562)?
The GI50 was 3.45 µM (inactive).

What about the GI50 (KM12) of the same compound?
The GI50 was > 40.3 µM (inactive).

And the GI50 (LOX IMVI)?
The GI50 was 15.9 µM (inactive).

And the GI50 (M14)?
Its GI50 is 13 µM (inactive).

And the GI50 (MCF7)?
Its GI50 is 16.3 µM (inactive).

And the GI50 (MDA-MB-231)?
The GI50 was 18.8 µM (inactive).

What about the GI50 (MDA-MB-435) of the same compound?
The GI50 was 14.2 µM (inactive).

And the GI50 (MDA-N)?
Its GI50 is 16.9 µM (inactive).

What about the GI50 (MOLT-4) of the same compound?
Its GI50 is 2.66 µM (inactive).

And the GI50 (Malme-3M)?
The GI50 was 9.73 µM (inactive).

What about the GI50 (NCI-H226) of the same compound?
Its GI50 is > 61 µM (inactive).

And the GI50 (NCI-H23)?
The GI50 was 17.5 µM (inactive).

And the GI50 (NCI-H460)?
The GI50 was 22 µM (inactive).

And the GI50 (NCI-H522)?
Its GI50 is 2.14 µM (inactive).

What about the GI50 (NCI/ADR-RES) of the same compound?
Its GI50 is 22.4 µM (inactive).

What about the GI50 (OVCAR-3) of the same compound?
The GI50 was 11.6 µM (inactive).

And the GI50 (OVCAR-4)?
The GI50 was 17.9 µM (inactive).

What about the GI50 (OVCAR-5) of the same compound?
The GI50 was 20.5 µM (inactive).

What about the GI50 (OVCAR-8) of the same compound?
The GI50 was 8.51 µM (inactive).

And the GI50 (PC-3)?
The GI50 was 19.1 µM (inactive).

What about the GI50 (RPMI-8226) of the same compound?
The GI50 was 2.94 µM (inactive).

And the GI50 (RXF 393)?
The GI50 was 14.3 µM (inactive).

What about the GI50 (SF-268) of the same compound?
The GI50 was 20 µM (inactive).

And the GI50 (SF-295)?
Its GI50 is > 75 µM (inactive).

What about the GI50 (SF-539) of the same compound?
The GI50 was 6.24 µM (inactive).

What about the GI50 (SK-MEL-28) of the same compound?
Its GI50 is 16.8 µM (inactive).

And the GI50 (SK-MEL-2)?
The GI50 was 22.8 µM (inactive).

And the GI50 (SK-MEL-5)?
The GI50 was 17.5 µM (inactive).

And the GI50 (SK-OV-3)?
Its GI50 is 48.9 µM (inactive).

What about the GI50 (SN12C) of the same compound?
The GI50 was 18.4 µM (inactive).

What about the GI50 (SNB-19) of the same compound?
Its GI50 is > 66.8 µM (inactive).

And the GI50 (SNB-75)?
Its GI50 is 16.3 µM (inactive).

And the GI50 (SW-620)?
Its GI50 is 3.3 µM (inactive).

What about the GI50 (T47D) of the same compound?
Its GI50 is 15.7 µM (inactive).

What about the GI50 (TK-10) of the same compound?
The GI50 was 13.7 µM (inactive).

And the GI50 (U-251)?
Its GI50 is 24.5 µM (inactive).

And the GI50 (UACC-257)?
Its GI50 is 15.3 µM (inactive).

And the GI50 (UACC-62)?
The GI50 was 17.2 µM (inactive).

What about the GI50 (UO-31) of the same compound?
The GI50 was 12.2 µM (inactive).

For `COc1nn(Cc2ccccc2F)c2ccc([N+](=O)[O-])cc12`, which GI50 (786-0) is on record?
The GI50 was > 100 µM (inactive).

And the GI50 (A549)?
Its GI50 is > 100 µM (inactive).

And the GI50 (ACHN)?
The GI50 was > 100 µM (inactive).

And the GI50 (CAKI-1)?
Its GI50 is > 100 µM (inactive).

And the GI50 (CCRF-CEM)?
The GI50 was > 100 µM (inactive).

What about the GI50 (COLO 205) of the same compound?
The GI50 was > 100 µM (inactive).

And the GI50 (DU-145)?
The GI50 was > 100 µM (inactive).

What about the GI50 (EKVX) of the same compound?
The GI50 was > 100 µM (inactive).

And the GI50 (HCC 2998)?
Its GI50 is > 100 µM (inactive).

And the GI50 (HCT-116)?
Its GI50 is > 100 µM (inactive).

And the GI50 (HCT-15)?
Its GI50 is greater than 100 µM.

And the GI50 (HL-60)?
The GI50 was 4.28 µM (inactive).

And the GI50 (HOP-62)?
The GI50 was 18.9 µM (inactive).

And the GI50 (HOP-92)?
The GI50 was 90.6 µM (inactive).

What about the GI50 (HT-29) of the same compound?
The GI50 was > 100 µM (inactive).

What about the GI50 (Hs-578T) of the same compound?
The GI50 was > 45.9 µM (inactive).

What about the GI50 (IGROV-1) of the same compound?
The GI50 was > 100 µM (inactive).

And the GI50 (K562)?
The GI50 was 2.91 µM (inactive).

What about the GI50 (KM12) of the same compound?
Its GI50 is > 100 µM (inactive).

And the GI50 (LOX IMVI)?
Its GI50 is > 100 µM (inactive).

What about the GI50 (M14) of the same compound?
Its GI50 is > 100 µM (inactive).

And the GI50 (MCF7)?
Its GI50 is > 100 µM (inactive).

And the GI50 (MDA-MB-231)?
Its GI50 is 12.1 µM (inactive).

And the GI50 (MDA-MB-435)?
Its GI50 is 2.74 µM (inactive).

And the GI50 (MDA-N)?
Its GI50 is 3.4 µM (inactive).

And the GI50 (MOLT-4)?
Its GI50 is > 20 µM (inactive).

What about the GI50 (Malme-3M) of the same compound?
The GI50 was > 85.3 µM (inactive).

What about the GI50 (NCI-H226) of the same compound?
Its GI50 is > 100 µM (inactive).

And the GI50 (NCI-H23)?
The GI50 was > 100 µM (inactive).

And the GI50 (NCI-H460)?
Its GI50 is > 100 µM (inactive).

And the GI50 (NCI-H522)?
The GI50 was > 30 µM (inactive).

What about the GI50 (NCI/ADR-RES) of the same compound?
Its GI50 is > 100 µM (inactive).

And the GI50 (OVCAR-3)?
Its GI50 is > 100 µM (inactive).

And the GI50 (OVCAR-4)?
The GI50 was > 100 µM (inactive).

And the GI50 (OVCAR-5)?
Its GI50 is > 100 µM (inactive).

What about the GI50 (OVCAR-8) of the same compound?
The GI50 was > 100 µM (inactive).

What about the GI50 (RXF 393) of the same compound?
The GI50 was 7.48 µM (inactive).

What about the GI50 (SF-268) of the same compound?
The GI50 was > 100 µM (inactive).

What about the GI50 (SF-539) of the same compound?
The GI50 was 41.1 µM (inactive).

And the GI50 (SK-MEL-28)?
The GI50 was > 100 µM (inactive).

And the GI50 (SK-MEL-2)?
Its GI50 is 98.9 µM (inactive).

And the GI50 (SK-MEL-5)?
The GI50 was > 100 µM (inactive).

What about the GI50 (SN12C) of the same compound?
The GI50 was > 100 µM (inactive).

What about the GI50 (SNB-19) of the same compound?
The GI50 was > 100 µM (inactive).

What about the GI50 (SNB-75) of the same compound?
The GI50 was > 100 µM (inactive).

And the GI50 (SR)?
The GI50 was > 100 µM (inactive).

And the GI50 (SW-620)?
Its GI50 is > 100 µM (inactive).

What about the GI50 (T47D) of the same compound?
The GI50 was > 100 µM (inactive).

What about the GI50 (TK-10) of the same compound?
Its GI50 is > 100 µM (inactive).

And the GI50 (U-251)?
Its GI50 is > 100 µM (inactive).

And the GI50 (UACC-257)?
The GI50 was > 50.6 µM (inactive).

What about the GI50 (UO-31) of the same compound?
The GI50 was > 100 µM (inactive).
